One may read the IC50 as the concentration at which inhibition is half-maximal. A high value points to weaker potency in that assay.

Consider three compounds from patent EP4653431A1, “PYRAZOLE DERIVATIVE, AND PHARMACEUTICALLY ACCEPTABLE SALT, STEREOISOMER, PHARMACEUTICAL COMPOSITION AND USE THEREOF” (Starg (Wuhan) Pharmaceutical Technology Co., Ltd, priority 2023, dated 2024).

The structures appear in SMILES notation. Structures can show the parent of a compound that is named as a salt.

In one assay the test system is T-47D cells. Nature of the assay: In vitro T-47D cell viability assay (CellTiter-Glo). It is filed as cell-based. The note with it: Homo sapiens, T47D, 168 h, 7 days incubation. The method, then: 1640 medium, fetal bovine serum, and penicillin/streptomycin antibiotics were purchased from Wisent. CellTiter-Glo (cell viability chemiluminescence assay reagent) was purchased from Promega. The T-47D cell line was purchased from Nanjing Cobioer Biosciences Co., Ltd. Envision multimode plate reader (PerkinElmer) was used.
T-47D cells were seeded into a white 384-well plate, with 40 µL of cell suspension containing 300 T-47D cells per well. The cell plate was incubated overnight in a CO2 incubator.
(§1) The test compound was serially diluted 5-fold using a multichannel pipette to the 8th concentration, i.e., from 2000 µM to […]. The experiment was set up with duplicate wells. 78 µL of culture medium was added to an intermediate plate, and 2 µL per well of the gradient-diluted compound was transferred to the corresponding position in the intermediate plate. After mixing, 10 µL per well of the mixture was transferred to the cell plate. The concentration range of the compound transferred to the cell plate was from 10 µM to 0.026 nM. The cell plate was incubated in a CO2 incubator for 7 days. Another cell plate was prepared, and the signal value was read on the day of compound addition to serve as the maximum value (Max in the equation below) for data analysis. 10 µL per well of CellTiter-Glo reagent was added to the cell plate, and the cell plate was incubated at room temperature for 10 minutes to stabilize the luminescence signal. The signal was read using the Envision multimode plate reader.
10 µL per well of CellTiter-Glo reagent was added to the cell plate, and the cell plate was incubated at room temperature for 10 minutes to stabilize the luminescence signal. The signal was read using the Envision multimode plate reader.
The raw data were converted to inhibition rates using the equation (Sample-Min)/(Max-Min)×100%. The IC50 value was obtained by fitting the data to a four-parameter curve (using log(inhibitor) vs. response -- Variable slope model in GraphPad Prism). Table 1 provides the inhibitory activity of the compounds of the present application against T-47D cell proliferation.
(In general: ATP-based viability assays read luminescence as a measure of living cells.)

A further assay deals with OVCAR-3 cells. In words: In vitro OVCAR-3 cell viability assay (CellTiter-Glo). The format is cell-based. The note with it: Homo sapiens, OVCAR-3, 168 h, 7 days incubation. The method, then:
1640 medium, fetal bovine serum, and penicillin/streptomycin antibiotics were purchased from Wisent. CellTiter-Glo (cell viability chemiluminescence assay reagent) was purchased from Promega. The OVCAR-3 cell line was purchased from Nanjing Cobioer Biosciences Co., Ltd. Envision multimode plate reader (PerkinElmer) was used.
OVCAR-3 cells were seeded into a white 384-well plate, with 40 µL of cell suspension containing 300 OVCAR-3 cells per well. The cell plate was incubated overnight in a CO2 incubator.
as §1, with “the” for “the Envision”
10 µL per well of CellTiter-Glo reagent was added to the cell plate, and the cell plate was incubated at room temperature for 10 minutes to stabilize the luminescence signal. The signal was read using the multimode plate reader.
The raw data were converted to inhibition rates using the equation (Sample-Min)/(Max-Min)×100%. The IC50 value was obtained by fitting the data to a four-parameter curve (using log(inhibitor) vs. response -- Variable slope model in GraphPad Prism). Table 1 provides the inhibitory activity of the compounds of the present application against OVCAR-3 cell proliferation.

The target of a further assay is T1, CDK2/cyclin E1 (Homo sapiens, UniProt P24941).
T1 construct: purchased SignalChem
Nature of the assay: In vitro CDK2/cyclinE enzyme activity assay (TR-FRET). It is filed as biochemical. The note with it: CDK2/cyclin E1, 1 mM ATP, 120 min at 25 °C. The method, then:
CDK2/cyclin E1 was purchased from SignalChem. Ulight-4E-BP1 peptide, Eu-anti-phospho-tyrosine antibody, and 1X detection buffer solution were purchased from PerkinElmer. High-purity adenosine triphosphate (ATP) was purchased from Promega. Ethylenediaminetetraacetic acid (EDTA) was purchased from Sigma. Nivo multimode plate reader (PerkinElmer) was used.
Preparation of Kinase Buffer Solution: The kinase buffer solution consisted 50 mM HEPES, 1 mM EDTA, 10 mM MgCl2, and 0.01% Brij-35, with pH of 7.4. 2.38 g HEPES, 58 mg EDTA, 406 mg MgCl2, and 20 mg Brij-35 were added to 200 mL buffer, and the pH was adjusted to 7.4.
The stop solution was prepared by mixing 100 µL of 1 M EDTA stock solution with […] of 1X detection buffer solution and 1725 µL of distilled water.
The enzyme, Ulight-4E-BP1 peptide, ATP, and the inhibitor were diluted using the kinase buffer solution. The Eu-anti-phospho-tyrosine antibody was diluted to a concentration of 8 nM/L using the detection buffer solution. The test compound was serially diluted 5-fold using a multichannel pipette to the 8th concentration, i.e., from 4 µM to 0.0512 nM. The final concentration of DMSO was 4%, and the experiment was set up with duplicate wells. 2.5 µL of each gradient concentration of the inhibitor, 5 µL of CDK2/cyclin E1 enzyme (10 ng), and 2.5 µL of a mixture of substrate and ATP (4 mM ATP, 100 nM Ulight-4E-BP1 peptide) were added to a microplate, resulting in a final concentration gradient of the compound from 1 µM to 0.0128 nM, with final ATP and substrate concentrations of 1 mM and 25 nM, respectively. The reaction system was incubated at 25 °C for 120 minutes. After the reaction, 5 µL of the stop solution was added to each well, and further reacted at 25 °C for 5 minutes to terminate the reaction. Then 5 µL of Eu-anti-phospho-tyrosine antibody dilution was added to each well, and the mixture was reacted at 25 °C for 60 minutes. Data were collected using the PerkinElmer Nivo multimode plate reader in TR-FRET mode (excitation wavelength: 320 nm; emission wavelengths: 615 nm and 665 nm).
The raw data were converted to inhibition rates according to the equation (Sample-Min)/(Max-Min)×100%. The IC50 value was obtained by fitting the data to a four-parameter curve (using log(inhibitor) vs. response -- Variable slope model in GraphPad Prism).
(In general: In TR-FRET formats the signal depends on donor and acceptor labels being close together.)

On to `CONCc1nn2ccnc(Nc3cc([C@H]4CC[C@@H](OC(=O)NC(C)C)C4)[nH]n3)c2c1F` [Compound 5], for which the IC50 with T-47D cells was found to be 193 nM; in the assay with OVCAR-3 cells, 309 nM; on CDK2/cyclin E1 it was 6.8 nM.

Regarding `CON(C)Cc1nn2ccnc(Nc3cc([C@H]4CC[C@@H](OC(=O)NC(C)C)C4)[nH]n3)c2c1C` [Formate salt of compound 2], the half-maximal inhibitory concentration (IC50) in the assay with T-47D cells was 465 nM; in the assay with OVCAR-3 cells, 124 nM; against CDK2/cyclin E1, 4.1 nM.

In the case of `CON(C)Cc1nn2ccnc(Nc3cc([C@H]4CC[C@@H](OC(=O)NC(C)C)C4)[nH]n3)c2c1F` [Compound 6], the IC50 was determined as 384 nM in the assay with T-47D cells, 104 nM with OVCAR-3 cells and 7.4 nM against CDK2/cyclin E1.
